Measurements reported in patent US20230126310A1 (priority 2020, published 2023).

Test system: SARS-CoV-2
Details: 10 µM

Compound	% Inh. (% Inhibition of SARS-CoV-2)
Cc1ccc(C(=O)N(CCCN)[C@@H](c2oc3cc(Cl)ccc3c(=O)c2Cc2ccccc2)C(C)C)cc1 [SB-743921]	78.9%
O=C(Nc1ccc(CN2CCOCC2)cc1)c1ccc(-c2cccc(Cl)c2)o1 [CID-2011756]	97.0%
c1ccc2nc(C3=NCCN3)cnc2c1 [BU-239]	60.1%
CC(=O)N1CCN(CCOc2ccc(C3CCN(C4=Nn5c(nnc5C(F)(F)F)CC4)CC3)cc2)CC1 [AZD3514]	96.8%
CCN(CC)CC1CCN(c2ncc3ncnc(Nc4ccc(F)c(Cl)c4)c3n2)CC1.Cl.Cl [BIBU-1361]	78.5%
CC(C)(N)c1cc(C(=O)N[C@@H]2CCc3ccc(Oc4ccnc5c4CCC(=O)N5)cc3C2)cc(C(F)(F)F)c1 [ML-786]	105.5%
CC(C)(C)c1ccc(NC(=O)N2CCN(c3ncccc3Cl)CC2)cc1 [BCTC]	86.4%
Nc1nc(OCC2CCCCC2)c2[nH]cnc2n1 [NU-2058]	51.9%
COc1ccccc1C1(O)CCN(CCCn2c3ccccc3c3ccccc32)CC1 [NNC-05-2090]	71.8%
CN1CC[C@@H](c2c(O)cc(O)c3c(=O)cc(-c4ccccc4Cl)oc23)[C@@H]1CO.Cl [P276-00]	94.4%
CC(C)(C)c1cc(C(=O)/C(C#N)=N/Nc2cccc(Cl)c2)no1 [ESI-09]	78.0%
c1cc2c(cc1C1CCCCC1)c1c3n2CCNC3CCC1 (stereo not shown) [tetrindole]	75.2%
Cc1cc(/C=C2\SC(=O)N(c3ccccc3)C2=O)c(C)n1-c1cccnc1 [iCRT-14]	82.5%
CC(C)C(C(=O)Nc1nccs1)c1ccc(Cl)cc1 (stereo not shown) [4-CMTB]	87.1%
COc1ncc2cc(C(=O)Nc3cc(C(=O)NCc4cccc(Cl)c4)ccc3Cl)c(=O)[nH]c2n1 [TC-S-7004]	77.3%
c1ccc(CCCCN2CCC(c3ccccc3)CC2)cc1 [4-PPBP]	63.1%
C=C1/C(=C\C=C2/CCC[C@]3(C)[C@@H]([C@H](C)/C=C/[C@H](C)C(C)(C)O)CC[C@@H]23)C[C@@H](O)C[C@@H]1O [Ercalcitriol]	86.9%
CCCCCCCCCCCCCCCc1cccc(OCC(=O)NCCO)c1 [PDP-EA]	65.3%
Cc1cc(I)ccc1Nc1c(C(=O)NOCC2CC2)cc(F)c(F)c1F [PD-198306]	51.6%

Compound	% Inh. (% Inhibition of SARS-CoV-2)
Nc1[nH]nc2nnc(-c3c(-c4ccccc4)nn4ccccc34)cc12 [FR-180204]	58.8%
O=C(Nc1ccccc1)N1CCN(c2nc(-c3ccccc3)ns2)CC1 [JNJ 1661010]	93.8%
COc1ccc(C[C@H]2NC[C@H](O)[C@H]2OC(C)=O)cc1 [anisomycin]	88.1%
CCCCCCCCCCCCCCCC[N+](C)(C)C.[Br-] [CETRIMONIUM BROMIDE]	87.7%
I-BET151 (GSK1210151A)	56.0%
Cc1ccc(-c2nn(C(C)(C)C)c3ncnc(N)c23)cc1 [PP-1]	121.9%
O=C(Cc1ccc(-c2ccc(OCCN3CCOCC3)cc2)cn1)NCc1ccccc1 [KX2-391]	79.9%
Cc1c(Cn2c(C)nc3c(C(=O)O)cc(N4CCOCC4)cc32)cccc1C(F)(F)F [GSK2636771]	88.1%
CCC(=O)N1CCN(c2ccc(-n3c(=O)ccc4cnc5ccc(-c6cnc7ccccc7c6)cc5c43)cc2C(F)(F)F)CC1 [Torin 1]	75.3%
Cc1nc(C#Cc2ccnc(Cl)c2)c(C)n1-c1ccc(OC(F)(F)F)cc1 [CTEP (RO4956371)]	59.7%
CC(=O)O[C@H]1C[C@H](O[C@H]2[C@@H](O)C[C@H](O[C@H]3[C@@H](O)C[C@H](O[C@H]4CC[C@@]5(C)[C@H](CC[C@@H]6[C@@H]5C[C@@H](O)[C@]5(C)[C@@H](C7=CC(=O)OC7)CC[C@]65O)C4)O[C@@H]3C)O[C@@H]2C)O[C@H](C)[C@H]1O[C@@H]1O[C@H](CO)[C@@H](O)[C@H](O)[C@H]1O [LANATOSIDE C]	63.7%
CN1c2cc3c(cc2N=C(c2ccc(C(=O)O)cc2)c2ccccc21)C(C)(C)CCC3(C)C [LE-135]	105.5%
N#Cc1cnc2cnc(NCc3cccnc3)cc2c1Nc1ccc(F)c(Cl)c1 [TC-S-7006]	100.7%
CCCCCCCCc1ccc(-c2ccc(C(=O)O)cc2)cc1 [AC-55649]	63.1%
Cc1cc(=O)oc2c(C=O)c(O)ccc12 [4-mu-8C]	106.2%
CC1CCN(C(c2ccc(F)cc2)c2ccc(C(C)C(=O)O)cc2-c2ccc(C(F)(F)F)cc2)CC1 (stereo not shown) [TC-E-5006]	94.1%
COc1ccc(CNC(=O)Nc2ncc([N+](=O)[O-])s2)cc1 [AR-A014418]	82.3%
Nc1cc(C(F)(F)F)c(-c2cc(N3CCOCC3)nc(N3CCOCC3)n2)cn1 [BKM120 (NVP-BKM120)]	97.6%
